Measured values from patent US20100298141A1, “SUBSTITUTED PYRIDINE N-OXIDE HERBICIDES” (E. I. DU PONT DE NEMOURS AND COMPANY, priority 2007, published 2010).

What was measured:
crabgrass [1] = assay: Test C pre-/postemergence test; assay type: in vivo, Digitaria sanguinalis
Method in brief: (§1)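 Test chemicals were formulated with surfactant in a non-phytotoxic solvent and sprayed both on freshly planted seeds (preemergence) and on 1- to 4-leaf plants of 2–18 cm (postemergence). Flooded-paddy pots received compound directly into 3 cm of standing water, maintained for the test.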

crabgrass [2] = assay: Test A pre-/postemergence greenhouse test; assay type: in vivo, Digitaria sanguinalis; details: for Crabgrass, Large plant response rating: 0 to 100 scale
Method in brief: (§2)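 Two application timings were run side by side in the greenhouse. Before emergence, compound went onto the soil surface of loam–sand pots as a directed spray; after emergence, plants at 2–10 cm and the one- to two-leaf stage were treated. Visual injury versus controls was rated at approximately day ten.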

[3] = test system: common (oilseed) sunflower; assay: Test C pre-/postemergence test; assay type: in vivo, Helianthus annuus; details: for Sunflower plant response rating: preemergence, scale 0 (no effect) to 100 (complete control)
Method in brief: as §1

pigweed = assay: Test C pre-/postemergence test; assay type: in vivo, Amaranthus retroflexus
Method in brief: as §1

Surinam grass = assay: Test C pre-/postemergence test; assay type: in vivo, Brachiaria decumbens; details: for Surinam Grass plant response rating: preemergence, scale 0 (no effect) to 100 (complete control)
Method in brief: as §1

bermudagrass = assay: Test C pre-/postemergence test; assay type: in vivo, Cynodon dactylon
Method in brief: as §1

morningglory = assay: Test A pre-/postemergence greenhouse test; assay type: in vivo, Ipomoea spp.; details: for Morningglory plant response rating: 0 to 100 scale
Method in brief: as §2

lambsquarters = assay: Test C pre-/postemergence test; assay type: in vivo, Chenopodium album
Method in brief: as §1

soybean = assay: Test C pre-/postemergence test; assay type: in vivo, Glycine max
Method in brief: as §1

cocklebur = assay: Test C pre-/postemergence test; assay type: in vivo, Xanthium strumarium
Method in brief: as §1

Goosegrass = assay: Test C pre-/postemergence test; assay type: in vivo, Eleusin indica
Method in brief: as §1

barnyardgrass [4] = assay: Test C flooded paddy test; assay type: in vivo, Echinochloa crus-galli; details: Flood
Method in brief: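 Flooded 3 cm over soil; compound into paddy water; depth kept constant. Greenhouse 13–15 d.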

Italian ryegrass = assay: Test C pre-/postemergence test; assay type: in vivo, Lolium multiflorum
Method in brief: as §1

giant foxtail = assay: Test A pre-/postemergence greenhouse test; assay type: in vivo, Setaria faberi; details: for Foxtail, Giant plant response rating: 0 to 100 scale
Method in brief: as §2

kochia = assay: Test C pre-/postemergence test; assay type: in vivo, Kochia scoparia
Method in brief: as §1

barnyardgrass [5] = assay: Test A pre-/postemergence greenhouse test; assay type: in vivo, Echinochloa crus-galli; details: for Barnyardgrass plant response rating: 0 to 100 scale
Method in brief: as §2

[6] = 31 g ai/ha, Preemergence, scale 0 to 100
[7] = 62 g ai/ha, preemergence, scale 0 (no effect) to 100 (complete control)
[8] = preemergence, 125 g ai/ha, scale 0 (no effect) to 100 (complete control)
[9] = Postemergence, 125 g ai/ha, 0 is no effect, 100 is complete control
[10] = Postemergence, 500 g ai/ha, 0 is no effect, 100 is complete control
[11] = Preemergence, 125 g ai/ha, 0 no effect, 100 complete control
[12] = Preemergence, 500 g ai/ha, 0 to 100 scale where 0 is no effect and 100 is complete control

Compound: Cn1nc(C(F)(F)F)c(CS(=O)(=O)c2cccc[n+]2[O-])c1OC(F)F [Compound 4]
- Crabgrass, Large plant response rating (crabgrass [1]; [6]): 98
- Crabgrass, Large plant response rating (crabgrass [1]; [7]): 100
- Plant response rating (0 to 100), Crabgrass, Large (crabgrass [1]; Preemergence, 250 g ai/ha): 100
- Crabgrass, Large plant response rating (crabgrass [1]; [8]): 100
- Crabgrass, Large plant response rating (crabgrass [2]; [9]): 80
- Crabgrass, Large plant response rating (crabgrass [2]; [10]): 80
- Crabgrass, Large plant response rating (crabgrass [2]; [11]): 100
- Plant response rating, Crabgrass, Large (crabgrass [2]; [12]): 100
- Sunflower plant response rating ([3]; 62 g ai/ha): 10
- Plant response rating (0 to 100), Sunflower ([3]; Preemergence, 250 g ai/ha): 80
- Sunflower plant response rating ([3]; 125 g ai/ha): 15
- Pigweed plant response rating (pigweed; [6]): 100
- Pigweed plant response rating (pigweed; [7]): 100
- Plant response rating (0 to 100), Pigweed (pigweed; Preemergence, 250 g ai/ha): 100
- Pigweed plant response rating (pigweed; [8]): 100
- Surinam Grass plant response rating (Surinam grass; 62 g ai/ha): 100
- Plant response rating (0 to 100), Surinam Grass (Surinam grass; Preemergence, 250 g ai/ha): 100
- Surinam Grass plant response rating (Surinam grass; 125 g ai/ha): 100
- Bermudagrass plant response rating (bermudagrass; [6]): 100
- Bermudagrass plant response rating (bermudagrass; [7]): 100
- Plant response rating (0 to 100), Bermudagrass (bermudagrass; Preemergence, 250 g ai/ha): 100
- Bermudagrass plant response rating (bermudagrass; [8]): 100
- Morningglory plant response rating (morningglory; [9]): 60
- Morningglory plant response rating (morningglory; [10]): 70
- Morningglory plant response rating (morningglory; [11]): 80
- Plant response rating, Morningglory (morningglory; [12]): 90
- Lambsquarters plant response rating (lambsquarters; [6]): 0
- Lambsquarters plant response rating (lambsquarters; [7]): 50
- Plant response rating (0 to 100), Lambsquarters (lambsquarters; Preemergence, 250 g ai/ha): 100
- Lambsquarters plant response rating (lambsquarters; [8]): 80
- Soybean plant response rating (soybean; [6]): 0
- Soybean plant response rating (soybean; [8]): 0
- Cocklebur plant response rating (cocklebur; [6]): 0
- Cocklebur plant response rating (cocklebur; [7]): 0
- Plant response rating (0 to 100), Cocklebur (cocklebur; Preemergence, 250 g ai/ha): 0
- Cocklebur plant response rating (cocklebur; [8]): 0
- Goosegrass plant response rating (Goosegrass; [6]): 100
- Goosegrass plant response rating (Goosegrass; [7]): 100
- Plant response rating (0 to 100), Goosegrass (Goosegrass; Preemergence, 250 g ai/ha): 100
- Goosegrass plant response rating (Goosegrass; [8]): 100
- Plant response rating, Barnyardgrass (barnyardgrass [4]; 31 g ai/ha, scale 0 to 100 (0 no effect, 100 complete control)): 0
- Plant response rating, Barnyardgrass (barnyardgrass [4]; 62 g ai/ha, scale 0 to 100, 0 no effect, 100 complete control, 13 to 15 days): 35
- Plant response rating, Barnyardgrass (barnyardgrass [4]; 125 g ai/ha, scale 0 to 100, 0 no effect, 100 complete control, 13 to 15 days): 85
- Plant response rating, Barnyardgrass (barnyardgrass [4]; 250 g ai/ha, scale 0 to 100 (0 no effect, 100 complete control)): 90
- Ryegrass, Italian plant response rating (Italian ryegrass; [6]): 0
- Ryegrass, Italian plant response rating (Italian ryegrass; [7]): 60
- Plant response rating (0 to 100), Ryegrass, Italian (Italian ryegrass; Preemergence, 250 g ai/ha): 100
- Ryegrass, Italian plant response rating (Italian ryegrass; [8]): 100
- Foxtail, Giant plant response rating (giant foxtail; [9]): 80
- Foxtail, Giant plant response rating (giant foxtail; [10]): 90
- Foxtail, Giant plant response rating (giant foxtail; [11]): 100
- Plant response rating, Foxtail, Giant (giant foxtail; [12]): 100
- Kochia plant response rating (kochia; [6]): 0
- Kochia plant response rating (kochia; [7]): 100
- Plant response rating (0 to 100), Kochia (kochia; Preemergence, 250 g ai/ha): 100
- Kochia plant response rating (kochia; [8]): 100
- Barnyardgrass plant response rating (barnyardgrass [5]; [9]): 70
- Barnyardgrass plant response rating (barnyardgrass [5]; [10]): 80
- Barnyardgrass plant response rating (barnyardgrass [5]; [11]): 70
- Plant response rating, Barnyardgrass (barnyardgrass [5]; [12]): 100
